Values joined by “and” are separate entries in the source; they are usually repeats but may differ in a detail not shown here. Identical values can stand only once. Like-named read-outs stand apart in the source and are kept apart here. Bridge positions count the residues as written; N and C are the ends. Square brackets hold non-standard residues; d marks the D form. Peptide text beside a SMILES is read from it. I, II: the chains in the order shown.
Columns and labels:
[1] = test system: metastatic human breast (SUM 52 PE) and prostate (DU 145) cancer cell lines, human microvascular cells (hmvec); assay type: cell-based; settings: for fold more potent than the unmodified PHSCN: SUM 52 PE and DU 145 invasion
Experimental: Some of the examples below employ an invasion assay utilizing naturally occurring basement membranes from 72 hour sea urchin embryos. Breast and prostate cancer invasion was induced with serum; hmvec invasion was induced with the PHSRN sequence of the plasma fibronectin (pFn) cell binding domain. The assay is described in U.S. Pat. No. 6,001,965, hereby incorporated by reference.
In this example, PHSCN peptides, where the sulfur of the SH group of cysteine was modified to block disulfide bond formation, were tested in an in vitro invasion assay utilizing naturally occurring basement membranes. More specifically, the invasion-inhibiting potencies of S-methylated and S-acetylated derivatives of the PHSCN (SEQ ID NO:1) peptide [i.e. Ac-PHSC(S—CH3)N—NH2 (SEQ ID NO:3) and Ac-PHSC(S—COCH3)N—NH2, (SEQ ID NO:4), respectively] were quantitated [in comparison with PHSCN (SEQ ID NO:1) dimerized by S—S bond formation] with two types of metastatic human cancer cell lines, i.e. a breast cell line (SUM 52 PE) and a prostate cell line (DU 145) (see FIG. 1 and FIG. 2, respectively). These modified peptides prevent breast cancer and prostate cancer invasion at concentrations in the pg/ml range.
In this example, PHSCN peptides, where two L-amino acids are substituted with D-amino acids, were tested in an in vitro invasion assay utilizing naturally occurring basement membranes. More specifically, the invasion-inhibiting potencies of Ac-PHScN—NH2 (SEQ ID NO:7), and Ac-PhScN—NH2 (SEQ ID NO:8) were quantitated [in comparison with Ac-PHSCN—NH2 (SEQ ID NO:12) as well as a scrambled peptide Ac-HSPNC—NH2 (SEQ ID NO:15)] with two types of metastatic human cancer cell lines, i.e. a breast cell line (SUM 52 PE) and a prostate cell line (DU 145) (see FIG. 3 and FIG. 4, respectively), as well as human microvascular cells (“hmvec”) (see FIG. 5). These modified peptides prevent breast cancer and prostate cancer invasion at concentrations in the pg/ml range.
Table I compares IC50's of Ac-PHSCN—NH2 (“PHSCN”) (SEQ ID NO:12), Ac-PhScN—NH2 (SEQ ID NO:8) (“PhScN”), Ac-PHScN—NH2 (SEQ ID NO:7) (“PHScN”), and the S-methylated and S-acetylated PHSCN derivatives [Ac-PHSC(S-Me)N—NH2 (SEQ ID NO:3) and Ac-PHSC(S—COCH3)N—NH2 (SEQ ID NO:4)]. The IC50 for PhScN is over 10,000-fold lower than that for PHSCN.

DU 145 prostate cancer = assay: subcutaneous DU 145 tumors in nude mice, systemic therapy; assay type: in vivo, athymic nude mice
Experimental: In this example, PHSCN peptides, where two L-amino acids are substituted with D-amino acids, were tested in vivo. FIG. 6 compares the antitumorigenic effects of systemic Ac-PhScN—NH2 (SEQ ID NO:8) therapy at three different dosages (0.5, 0.05, and 0.005 micrograms per kg) with the antitumorigenic effects of 0.5 mg (500 micrograms) per kg of Ac-PHSCN—NH2 (SEQ ID NO:12) therapy using the DU 145 prostate cancer (as well as with untreated controls). The experiment involved generating subcutaneous DU 145 tumors in nude mice. More specifically, 500,000 suspended DU 145 cells were injected subcutaneously into the flanks of athymic nude mice. All mice were allowed to grow untreated DU 145 tumors in their flanks for about 8 weeks. All 3 therapies (i.e. using the three different dosages) were administered thrice-weekly by tail vein injection after the tumors became palpable. Each treatment group consisted of 8 intramuscular (flank) tumors. After 7 weeks of treatment, when the untreated tumors were very large, all mice were sacrificed at the same time, and all tumors dissected out and measured.

α5β1 integrin [2] = molecular target: T1, α5β1 integrin (Homo sapiens, UniProt P08648); assay: competition with biotinylated PHSCN binding in SUM149PT cell extracts (blot); settings: PhScN:PHSCN ratios 0:1, 1:1, 10:1, 50:1
Text: In this experiment, biotinylated PHSCN peptide (Ac-PHSCNGGK(Bio)-NH2) (SEQ ID NO:18) was mixed with varying amounts of unlabeled Ac-PhScN—NH2 (SEQ ID NO:8). The mixed peptides were bound to detergent extracts of SUM149PT cells. A denaturing, non-reducing gel was run, blotted, and reacted with anti biotin primary antibody (FIG. 7). PhScN:PHSCN ratios were 0:1, 1:1, 10:1, or 50:1, as shown in lanes 2-5, respectively. Lane 1 contains the biotinylated α5β1 control. […] Thus, it is likely to interact with the same target site on α5 integrin as the PHSCN peptide. Alternatively PhScN binding could produce a structural or conformational change in the α5 subunit, such as a change in disulfide bonding pattern, that prevents binding of biotinylated PHSCN.

Panc1 cells = assay: invasion of irradiated cells on SU-ECM basement membranes; assay type: cell-based; settings: 1 μg/ml peptide, single 2 Gy dose, 16 hours
Experimental: (§1) Adherent BxPC-3 and Panc1 cells were irradiated. Panc1 cells received a single 2 Gy dose. BxPC-3 cells received a single 3 Gy dose. Approximately 45 minutes later, the cells were suspended (trypsinized), pelleted and resuspended in medium containing 10% fetal calf serum. Then, the appropriate concentration of the Ac-PHSCN—NH2 (SEQ ID NO: 12) peptide, as well as a scrambled peptide Ac-HSPNC—NH2 (SEQ ID NO:15), was added to the suspended cells to make a final peptide concentration of 1 μg/ml, and they were dropped onto the surfaces of SU-ECM (sea urchin embryo basement membranes). At the time the cells were placed on the basement membranes, one hour had elapsed since irradiation. Cells were incubated on the basement membranes for 16 hours at 37° C. in 5% CO2, prior to scoring at 400-fold magnification, under phase contrast optics. All single cells adherent to the basement membranes were scored, with respect to whether they were inside the basement membranes (invaded), or were still adherent to the exterior surface (uninvaded). Mean invasion percentages were determined with their first standard deviations for each sample.

BxPC-3 cells = assay: as above; assay type: cell-based; settings: 1 μg/ml peptide, single 3 Gy dose, 16 hours
Experimental: as §1

[3] = test system: hmvec, normal human microvascular cells; settings: cited from earlier work
α5β1 integrin [4] = molecular target: T1, α5β1 integrin; assay: surface α5β1 levels on irradiated pancreatic cancer cells (immunofluorescence); assay type: cell-based; set-up: surface α5β1 levels on irradiated pancreatic cancer cells; endogenous in cells; host or cells: Panc1 and BxPC-3 pancreatic cancer cells; settings: 1 μg per ml prebound 1 hour; Panc1 2 Gy, BxPC-3 3 Gy; 1 hr and 2 hr
Experimental: In this example, antibodies are used to measure downregulation of surface α5β1 levels on irradiated pancreatic cancer cells. Cells were prebound to 1 μg per ml Ac-PHSCN—NH2 (SEQ ID NO:12) peptide per 20,000 cells in medium containing 10% fetal bovine serum for serum for 1 hour at 37° C. The peptide-containing medium was removed, and replaced with serum-containing medium, prior to irradiation. Adherent cells were irradiated once: 2 Gy for Panc1 cells, and 3 Gy for BxPC-3 cells. One hour after irradiation, cells were quickly rinsed with phosphate-buffered saline (PBS) pH 7.4), then fixed for 15 minutes in 4% Paraformaldahyde (commercially available from Fluka) in PBS at room temperature. […] After three PBS washes, cells were incubated in anti-mouse IgG secondary antibody, conjugated with fluorosceine isothiocyanate (FITC) fluorescence marker (commercially available from Jackson ImmunoResearch Lab, Inc) at 1:200 dilution for 1 h at room temperature. […]
Means and first standard deviations (SD) were calculated using Image-Pro Plus software over 30 areas per treatment selected randomly under 400-fold magnification, then copied and pasted on Microsoft Excel data sheets for further data analysis. All data (see FIG. 10) are expressed as mean±SD and evaluated with ANOVA Student t-test. […]

end-stage human cancers = settings: cited from earlier work
[5] = test system: human breast and prostate cancer cell lines; settings: systemic; cited from earlier work
[6] = test system: DU 145 prostate cancer cells; settings: 20 ug per ml, one hour preincubation, then irradiation

CC(=O)N1CCC[C@H]1C(=O)N[C@@H](Cc1c[nH]cn1)C(=O)N[C@@H](CO)C(=O)N[C@@H](CSSC[C@H](NC(=O)[C@H](CO)NC(=O)[C@H](Cc1c[nH]cn1)NC(=O)[C@@H]1CCCN1C(C)=O)C(=O)N[C@@H](CC(N)=O)C(N)=O)C(=O)N[C@@H](CC(N)=O)C(N)=O [(PHSCN)2] (I: Ac-PHSCN-NH2 / II: Ac-PHSCN-NH2; disulfide I:4-II:4; N-terminus and C-terminus assumed)
IC50 (concentration exhibiting a 50% inhibition of invasion, relative to stimulated controls) ([1]; 72 h): 100 to 500 pg/mL

CC(=O)N1CCC[C@H]1C(=O)N[C@@H](Cc1c[nH]cn1)C(=O)N[C@@H](CO)C(=O)N[C@H](CS)C(=O)N[C@@H](CC(N)=O)C(N)=O [Ac-PHScN-NH2] (Ac-PHS[dC]N-NH2)
invasion-inhibiting potency relative to comparators, in words [1]: better than the controls, albeit not as potent as the two D-amino acid-containing peptide | IC50 (concentration exhibiting a 50% inhibition of invasion, relative to stimulated controls) ([1]; 72 h): 5 pg/mL

CC(=O)N1CCC[C@H]1C(=O)N[C@H](Cc1c[nH]cn1)C(=O)N[C@@H](CO)C(=O)N[C@H](CS)C(=O)N[C@@H](CC(N)=O)C(N)=O [Ac-PhScN-NH2] (Ac-P[dH]S[dC]N-NH2)
visible tumor tissue after treatment (DU 145 prostate cancer; 0.5 μg/kg thrice-weekly by tail vein injection, 7 weeks of treatment): no tumor tissue was visible | potency as inhibitor of tumorigenesis in vivo relative to Ac-PHSCN—NH2 (DU 145 prostate cancer; mouse, in vivo): orders of magnitude more potent | concentration range demonstrating inhibition of invasion [1]: 3 to 10 pg/ml and 5.0 to 16.7 pM | fold lower IC50 than that for PHSCN [1]: over 10,000 fold | invasion-inhibiting potency relative to comparators, in words [1]: orders of magnitude more potent | IC50 (concentration exhibiting a 50% inhibition of invasion, relative to stimulated controls) ([1]; 72 h): 0.3 pg/mL | competition for biotinylated PHSCN binding to the α5 integrin subunit (α5β1 integrin [2]): efficient competitor

CSC[C@H](NC(=O)[C@H](CO)NC(=O)[C@H](Cc1c[nH]cn1)NC(=O)[C@@H]1CCCN1C(C)=O)C(=O)N[C@@H](CC(N)=O)C(N)=O [PHSC(S—CH3)N, Ac-PHSC(S—CH3)N—NH2] (Ac-PHSC(Me)N-NH2)
IC50 (concentration exhibiting a 50% inhibition of invasion, relative to stimulated controls) ([1]; 72 h): 1 pg/mL | fold more potent than the unmodified PHSCN [1]: ~1000 fold | invasion-inhibiting potency relative to comparators, in words ([1]; listed as S-Me): many orders of magnitude more potent

Ac-HSPNC—NH2 (Ac-HSPNC-NH2) [scrambled peptide control]
invasion after irradiation (Panc1 cells): no inhibition of invasiveness | invasion after irradiation (BxPC-3 cells): no inhibition of invasiveness

Ac-PHSC(Ac)N-NH2 [PHSC(S—COCH3)N, Ac-PHSC(S—COCH3)N—NH2]
IC50 (concentration exhibiting a 50% inhibition of invasion, relative to stimulated controls) ([1]; 72 h): 0.1 pg/mL | fold more potent than the unmodified PHSCN [1]: ~100,000 fold | invasion-inhibiting potency relative to comparators, in words ([1]; listed as S-OAc): many orders of magnitude more potent

Ac-PHSCN-NH2 [PHSCN, Ac-PHSCN—NH2]
potency at preventing hmvec invasion [3]: equally potent | mean tumor diameter: untreated tumors fold larger relative to treated tumors (DU 145 prostate cancer; 0.5 mg per kg thrice-weekly by tail vein injection, 7 weeks of treatment): over 6 fold | α5β1 expression on irradiated cancer cells (α5β1 integrin [4]): dramatically downregulated | adverse events (end-stage human cancers; human, in vivo): without significant adverse events | time metastatic disease progression was prevented (end-stage human cancers; thrice-weekly systemic monotherapy): 4 to 14 months | invasion after irradiation (Panc1 cells): reduced invasion to zero | invasion after irradiation (BxPC-3 cells): reduced invasion to zero | concentration preventing metastatic disease progression [5]: 1 to 2 µM | dosage preventing metastatic disease progression [5]: 0.5 to 50 mg/kg | IC50 (concentration exhibiting a 50% inhibition of invasion, relative to stimulated controls) ([1]; 72 h): 30,000 pg/ml

PHSCNGGKMAP [PHSCNGGK-MAP (8), Ac-PHSCNGGK-MAP, multiantigenic peptide dendrimer of the parent peptide]
enhancement ratio (MED control / MED with dendrimer) [6]: larger than one | IC50 (concentration exhibiting a 50% inhibition of invasion, relative to stimulated controls) ([1]; cell type not given): 300 pg/mL

Reference: US8940701B2, “Compounds for, and methods of, treating cancer and inhibiting invasion and metastases” (The Regents of the University of Michigan, priority 2009, dated 2015)
